According to paper PMC5460155 (ACS chemical neuroscience, 2017):
Substitutions are numbered along the chain they refer to. Entries after “also recorded” stand apart in the source; their conditions may differ.

Columns and labels:
[1] = target: T1, mouse M1 (Mus musculus, UniProt P12657); assay: Mouse M1 agonist activity, calcium mobilization; format: cell-based
T1 sequence (P12657 1-460): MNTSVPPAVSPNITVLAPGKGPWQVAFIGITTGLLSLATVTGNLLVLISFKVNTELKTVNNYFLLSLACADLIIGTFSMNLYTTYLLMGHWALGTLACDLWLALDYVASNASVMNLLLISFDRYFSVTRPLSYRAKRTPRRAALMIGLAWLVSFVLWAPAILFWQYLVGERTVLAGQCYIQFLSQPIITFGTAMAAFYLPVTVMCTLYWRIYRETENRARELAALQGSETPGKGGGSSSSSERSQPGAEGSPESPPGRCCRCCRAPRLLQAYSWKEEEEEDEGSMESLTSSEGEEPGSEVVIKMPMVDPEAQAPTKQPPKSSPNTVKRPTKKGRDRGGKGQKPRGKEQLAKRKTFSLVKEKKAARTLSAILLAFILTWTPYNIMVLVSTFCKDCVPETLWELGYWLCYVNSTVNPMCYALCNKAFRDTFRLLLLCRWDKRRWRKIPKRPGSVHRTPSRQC

[2] = system: C57Bl/6 mice; assay: Spontaneous locomotor activity; format: in vivo, mouse; settings: 1–10 mg/kg i.p.
[3] = system: mice; assay: Amphetamine-induced hyperlocomotion in mice; format: in vivo, mouse; settings: 1–10 mg/kg i.p., amphetamine 3 mg/kg s.c.
[4] = target: T2, M1 (Homo sapiens, UniProt P11229); assay: Discover X bias panel: M1 receptor internalization; format: cell-based
T2 sequence (P11229 1-460): T1 sequence (P12657 1-460) with V5A, S254T, K320R, G337A, V413I

[5] = target: T3, hM1 (Homo sapiens, UniProt P11229); assay: Acetylcholine affinity shift at hM1; format: binding
T3 sequence (P11229 1-460): T1 sequence (P12657 1-460) with V5A, S254T, K320R, G337A, V413I

[6] = system: rats; assay: Novel object recognition task; format: in vivo, rat; settings: rats, 1, 3, and 10 mg/kg i.p., 30 min pretreatment, assessed 24 h later
[7] = Mouse brain concentrations after i.p. dosing; format: in vivo; settings: 100 mg/kg i.p., mice
[8] = Mouse brain:plasma partition, discrete i.p. dose; settings: male, C57BL/6J, in vivo, ip, 10 mg/kg
[9] = target: T2, M1; assay: Discover X bias panel: β-arrestin recruitment assay; format: cell-based
[10] = target: T4, rat M1 (Rattus norvegicus, UniProt P08482); assay: Calcium mobilization, rM1-CHO cells, agonist mode; format: cell-based
T4 sequence (P08482 1-460): T1 sequence (P12657 1-460) with P309S

[11] = target: T4, rat M1; assay: Calcium mobilization, rM1-CHO cells, PAM mode; format: cell-based; settings: EC20 acetylcholine
[12] = target: T2, M1; assay: Calcium mobilization, hM1-CHO cells, agonist mode; format: cell-based
[13] = system: SD rats; assay: Amphetamine-induced hyperlocomotion in rats; format: in vivo, rat; settings: 30 mg/kg i.p., amphetamine 1 mg/kg s.c.
[14] = target: T2, M1; assay: Calcium mobilization, hM1-CHO cells, PAM mode; format: cell-based
[15] = system: 68 GPCRs, ion channels, and transporters; assay: Eurofin Lead Profiling radioligand binding panel; settings: 10 μM, 68 targets
[16] = system: mice; assay: Modified Irwin Toxicology Battery; format: in vivo; settings: 100 mg/kg i.p.
[17] = target: T2, M1; assay: [3H]-NMS competition binding, human M1 membranes
[18] = system: C57Bl/6 mice; assay: Behavioral convulsions, modified Racine scale; format: in vivo, mouse; settings: 100 mg/kg i.p., 3 h, modified Racine scale (0–5)
[19] = target: T1, mouse M1; assay: Calcium mobilization, mM1-CHO cells, PAM mode; format: cell-based
[20] = system: mice; settings: cited from earlier work

Cn1cc(-c2ccc(Cn3cc(C(=O)N[C@H]4CCCC[C@@H]4O)c4c(F)cc(F)cc43)cn2)cn1 [Compound 28a, 4,6-Difluoro-N-(1S,2S)-2-hydroxycyclohexyl-1-((6-(1-methyl-1H-pyrazol-4-yl)pyridine-3-yl)methyl)-1H-indole-3-carboxamide]
EC50 [1]: 0.45 µM
mouse M1 agonist % ACh Max ([1]; agonist activity at mouse M1): 86%
effect on spontaneous (basal) locomotor activity [2]: significantly less effect on spontaneous locomotor activity
effect on spontaneous (basal) locomotor activity ([2]; listed as VU6004256): decreased locomotor activity at the highest dose of 10 mg/kg
reversal of amphetamine-induced hyperlocomotion (AHL) [3]: did not reverse AHL in mice
EC50 [4]: > 10 µM
fold shift in ACh potency vs DMSO control ([5]; 0.3 μM PAM): 11 fold
fold shift in ACh potency vs DMSO control ([5]; 1.0 μM PAM): 58 fold
fold shift in ACh potency vs DMSO control ([5]; 10 μM PAM): 178 fold
recognition memory, novel object recognition [6]: dose-dependently enhanced recognition memory
total maximum brain concentration [7]: 49.9 µM
unbound maximum brain concentration [7]: 649 nM
Kp at 0.25 h [8]: 4.84
Kp uu at 0.25 h [8]: 2.61
M1 PAM potency and efficacy in β-arrestin recruitment [9]: comparable M1 PAM potency and efficacy
EC50 [10]: 3.98 µM
rACh Max (%), agonist ([10]; agonist mode, rM1-CHO cells, ± SEM): 68 ± 9%
rACh Max (%) ([11]; PAM mode, ± SEM): 92 ± 4%
EC50 ([11]; rM1 EC50 (nM), PAM mode): 141 nM
EC50 ([11]; rM1 pEC50, PAM mode, ± SEM): 138 nM
hACh Max (%), agonist ([12]; hM1-CHO cells, ± SEM): 56 ± 14%
EC50 ([12]; hM1 EC50 (μM), agonist, hM1-CHO cells): 4.8 µM
EC50 ([12]; hM1 pEC50, agonist, hM1-CHO cells, ± SEM): 4.68 µM
fold weaker M1 agonist than 16 ([12]; human and rat M1): 7 fold
reversal of amphetamine-induced hyperlocomotion (AHL) [13]: no effect
EC50 [14]: 0.214 µM
hACh Max (%) ([14]; PAM mode, hM1-CHO cells, EC20 acetylcholine, ± SEM): 86±1%
percent inhibition in ancillary pharmacology panel [15]: ≤ 50%
adverse effects, Modified Irwin Toxicology Battery ([16]; 100 mg/kg): no pronounced cholinergic effects
adverse effects, Modified Irwin Toxicology Battery ([16]; listed as VU6004256, 100 mg/kg): did not cause significant observable adverse effects
displacement of orthosteric radioligand [3H]-NMS [17]: slight inhibition of binding of the orthosteric radioligand at high concentrations; also recorded: weakly displaced
behavioral convulsions [18]: did not display observable behavioral seizure activity; also recorded: neither difluoro indole 28a nor 28c (both regioisomeric N-Me pyrazoles) induced behavioral convulsions
EC50 [19]: 0.155 µM
mACh Max (%) ([19]; PAM mode, mM1-CHO cells, EC20 acetylcholine, ± SEM): 79 ± 1%

CCCCCCOc1nsnc1C1=CCCN(C)C1 [xanomeline]
attenuation of amphetamine-induced activity in M4 knockout mice [20]: absent
